Test results reported in PMC5321741, “Arylmethylamino steroids as antiparasitic agents” (Nature Communications, 2017).
Several values for one entry are separate records, joined by “and”; a condition that tells them apart may be missing. Equal entries are not always repeated.

Tests used:
[1] = acute toxicity in vivo model; set-up: species or system mice; conditions: accumulative dose 100 mg kg−1 (5, 15, 30, 50 mg kg−1 at 2 h intervals), p.o. and i.p.
Method: (§1) The compound was applied at an accumulative dose of 100 mg kg^−1 (per os (p.o.). as well as intraperitoneally (i.p.)). The first application was 5 mg kg^−1, 2 h later 15 mg kg^−1, 2 h later 30 mg kg^−1 and again 2 h later 50 mg kg^−1. […] Moreover, we performed pharmacokinetics studies in mice, dosing i.v., i.p. and p.o. (Supplementary Table 5). […] In contrast, high exposure and sustained levels of ∼2 μM were obtained after i.p. dosing at 100 mg kg^−1.
In addition, cytotoxicity tests with compound 1o were carried out on immortalized human hepatocytes, Fa2N-4 cells, resulting in an LC50>50 μM. The best compound 1o has furthermore been tested in an acute toxicity in vivo model at the Swiss Tropical Institute, Basel.

[2] = system: haem; test: ESI-MS collision-induced dissociation of haem adducts; type: binding; conditions: 50 µM haem and 50 µM substrate; for DV50 (dissociation voltage at 50%) of haem adduct: ESI-CID, 20 V to 400 V; for Bottom plateau (adduct remaining at 400 V): fragmentor voltage 400 V
Method in brief: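 Equimolar haem and substrate (50 µM each) in H2O/CH3CN 5/95 with 0.1% formic acid, analysed by positive-mode ESI-CID with fragmentor 20–400 V in 20 V steps. DV50 is the voltage giving 50% dissociation of [haematin-drug]+ adducts.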

[3] = in vivo; set-up: species or system C57BL/6 mice; conditions: C57BL/6, mouse
Method: as §1
Parameter (n=3/time point)
Supplementary Table 5. Mouse pharmacokinetics of compound 1o.

[4] = PAMPA membrane permeability; type: in vitro ADME
Method: Pharmacokinetic data were obtained for compound 1o at the Sanford-Burnham Medical Research Institute according to established procedures. Compound solubility in an aqueous solution was measured using an automated kinetic solubility method. The concentration of the compound in a saturated pH-buffered aqueous solution was determined via UV absorbance (250–498 nm) and compared with the spectra of a precipitation-free reference solution. The plasma stability of the compound was determined at a single concentration using species-specific plasma. The percentage of parent compound remaining after 3 h was determined via LC-MS/MS. The percentage of compound 1o bound to plasma proteins was determined through rapid equilibrium dialysis and quantified via LC-MS/MS. Metabolic stability of the compound was determined at a single concentration using species-specific liver microsomes that contained cytochrome P450s, flavin-monooxygenases, carboxyl-esterases, epoxide hydrolases, and other drug-metabolizing enzymes. The quantification was carried out via LC-MS/MS. Membrane permeability of compound 1o was measured using an in vitro model for the passive transport from the gastrointestinal tract into the blood system. A double-sink parallel artificial membrane permeability assay PAMPA, in a 96-well format was employed.

With `COc1ccc2c(c1)CCC1C2CC[C@@]2(C)C1CC[C@H]2NCc1cc2ccccc2cc1O` (some centres unmarked) [1o] the acute toxicity symptoms [1] was “No acute toxicity symptoms were observed”, the “DV50 (dissociation voltage at 50%) of haem adduct” value [2] was 290 V and the “Bottom plateau (adduct remaining at 400 V)” value [2] was ~ 20% and 20%. The AUC(0-t) ([3]; ip, 100 mg/kg) was 13000 ng·h/mL, the Cmax ([3]; ip, 100 mg/kg) was 850 ng/mL and the Tmax ([3]; ip, 100 mg/kg) was 3 h. The bioavailability ([3]; ip, 100 mg/kg) was 24%, the half-life ([3]; ip, 100 mg/kg) was > 480 min and the AUC(0-t) ([3]; iv, 1 mg/kg) was 567 ng·h/mL. For the same compound, the Vd ([3]; iv, 1 mg/kg) was 6.4 L/kg, the clearance ([3]; iv, 1 mg/kg) was 29.6 mL/min/kg and the half-life ([3]; iv, 1 mg/kg) was > 480 min. For the same compound, the AUC(0-t) ([3]; po, 100 mg/kg) was 622 ng·h/mL, the Cmax ([3]; po, 100 mg/kg) was 43 ng/mL and the Tmax ([3]; po, 100 mg/kg) was 8.25 h. For the same compound, the bioavailability ([3]; po, 100 mg/kg) was < 5%, the half-life ([3]; po, 100 mg/kg) was > 480 min and the “PAMPA Pe” value ([4]; Donor pH 5.0, Acceptor pH 7.4) was 0 cm/s. For the same compound, the “PAMPA Pe” value ([4]; Donor pH 6.2, Acceptor pH 7.4) was 0 cm/s, the “PAMPA Pe” value ([4]; Donor pH 7.4, Acceptor pH 7.4) was 0 cm/s and the “PAMPA permeability in words” value ([4]; all 3 pH levels, compound well embedded in the filter membrane) was “very poorly permeable at all 3 pH levels tested”.
For `COc1ccc2c(c1)CCC1C2CC[C@@]2(C)C1CC[C@@H]2NCc1cc2ccccc2cc1O` (some centres unmarked) [2o], the “DV50 (dissociation voltage at 50%) of haem adduct” value [2] was 280 V and the “Bottom plateau (adduct remaining at 400 V)” value [2] was 21.7% and ~ 20%.
